Measured values taken from patent US12275731B2, “Azaindole inhibitors of wild-type and mutant forms of LRRK2” (DANA-FARBER CANCER INSTITUTE, INC., priority 2018, dated 2025).

How the values were obtained:
Assay in all cases: KinomeScan profiling
Assay type in all cases: binding
ROCK1 = ROCK1 (Homo sapiens, UniProt Q13464); settings: ROCK1, 1 μM; read-out: % control
In short: (§1)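 Normalised RLU (% control; DMSO 100%, positive control 0%) was measured for compounds dosed at 1 μM over 468 kinases, active cut-off <35%.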

BLK = target: T1, BLK (Homo sapiens, UniProt P51451); settings: read-out: % control
T1 construct: purchased KinomeScan®
In short: as §1

PLK2 = PLK2 (Homo sapiens, UniProt Q9NYY3); settings: PLK2, 1 μM; read-out: % control
In short: as §1

SGK = target: T2, SGK (Homo sapiens, UniProt O00141); settings: read-out: % control
T2 construct: purchased KinomeScan® (panel service)
T2 sequence (O00141 1-431): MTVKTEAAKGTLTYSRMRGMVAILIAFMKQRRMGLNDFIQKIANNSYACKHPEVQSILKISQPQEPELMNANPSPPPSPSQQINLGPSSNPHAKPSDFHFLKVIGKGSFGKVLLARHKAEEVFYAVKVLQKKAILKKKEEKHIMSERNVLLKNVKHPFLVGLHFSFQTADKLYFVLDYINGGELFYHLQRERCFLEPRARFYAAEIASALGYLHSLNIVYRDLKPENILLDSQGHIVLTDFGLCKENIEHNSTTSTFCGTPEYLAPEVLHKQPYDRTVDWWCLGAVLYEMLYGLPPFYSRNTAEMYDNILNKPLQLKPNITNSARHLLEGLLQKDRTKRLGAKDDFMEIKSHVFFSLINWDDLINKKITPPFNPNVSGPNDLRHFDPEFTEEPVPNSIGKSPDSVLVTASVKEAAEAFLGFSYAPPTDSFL
In short: as §1

ACVR2A = target: T3, ACVR2A (Homo sapiens, UniProt P27037); settings: read-out: % control
T3 construct: purchased KinomeScan®
In short: as §1

STK35 = target: T4, STK35 (Homo sapiens, UniProt Q8TDR2); settings: STK35, 1 μM; read-out: % control
T4 construct: purchased KinomeScan® (panel service)
In short: as §1

PDPK1 = target: T5, PDPK1 (Homo sapiens, UniProt O15530); settings: PDPK1, 1 μM; read-out: % control
T5 sequence (O15530 1-556): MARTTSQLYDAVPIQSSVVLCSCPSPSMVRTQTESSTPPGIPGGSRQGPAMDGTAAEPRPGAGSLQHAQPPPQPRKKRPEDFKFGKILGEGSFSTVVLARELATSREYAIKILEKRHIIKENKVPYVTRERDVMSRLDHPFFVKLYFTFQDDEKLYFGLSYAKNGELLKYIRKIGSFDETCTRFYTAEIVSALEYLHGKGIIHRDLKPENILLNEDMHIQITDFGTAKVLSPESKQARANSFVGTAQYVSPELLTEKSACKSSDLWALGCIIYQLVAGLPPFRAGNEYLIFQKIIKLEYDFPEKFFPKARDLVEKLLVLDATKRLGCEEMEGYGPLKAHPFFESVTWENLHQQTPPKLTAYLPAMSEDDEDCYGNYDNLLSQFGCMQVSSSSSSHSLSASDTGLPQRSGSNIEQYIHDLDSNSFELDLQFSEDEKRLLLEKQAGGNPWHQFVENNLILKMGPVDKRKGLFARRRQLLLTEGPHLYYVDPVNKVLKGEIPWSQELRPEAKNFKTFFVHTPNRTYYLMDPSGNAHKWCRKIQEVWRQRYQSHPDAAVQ
In short: (§2)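 Compounds were screened at 1 μM in DMSO across a 468-kinase KinomeScan panel. Binding was expressed as % control, scaled between a positive control (0%) and DMSO (100%) using luminescence signal. A value under 35% counted as active.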

LATS2 = target: T6, LATS2 (Homo sapiens, UniProt Q9NRM7); settings: LATS2, 1 μM; read-out: % control
T6 sequence (Q9NRM7 1-1088): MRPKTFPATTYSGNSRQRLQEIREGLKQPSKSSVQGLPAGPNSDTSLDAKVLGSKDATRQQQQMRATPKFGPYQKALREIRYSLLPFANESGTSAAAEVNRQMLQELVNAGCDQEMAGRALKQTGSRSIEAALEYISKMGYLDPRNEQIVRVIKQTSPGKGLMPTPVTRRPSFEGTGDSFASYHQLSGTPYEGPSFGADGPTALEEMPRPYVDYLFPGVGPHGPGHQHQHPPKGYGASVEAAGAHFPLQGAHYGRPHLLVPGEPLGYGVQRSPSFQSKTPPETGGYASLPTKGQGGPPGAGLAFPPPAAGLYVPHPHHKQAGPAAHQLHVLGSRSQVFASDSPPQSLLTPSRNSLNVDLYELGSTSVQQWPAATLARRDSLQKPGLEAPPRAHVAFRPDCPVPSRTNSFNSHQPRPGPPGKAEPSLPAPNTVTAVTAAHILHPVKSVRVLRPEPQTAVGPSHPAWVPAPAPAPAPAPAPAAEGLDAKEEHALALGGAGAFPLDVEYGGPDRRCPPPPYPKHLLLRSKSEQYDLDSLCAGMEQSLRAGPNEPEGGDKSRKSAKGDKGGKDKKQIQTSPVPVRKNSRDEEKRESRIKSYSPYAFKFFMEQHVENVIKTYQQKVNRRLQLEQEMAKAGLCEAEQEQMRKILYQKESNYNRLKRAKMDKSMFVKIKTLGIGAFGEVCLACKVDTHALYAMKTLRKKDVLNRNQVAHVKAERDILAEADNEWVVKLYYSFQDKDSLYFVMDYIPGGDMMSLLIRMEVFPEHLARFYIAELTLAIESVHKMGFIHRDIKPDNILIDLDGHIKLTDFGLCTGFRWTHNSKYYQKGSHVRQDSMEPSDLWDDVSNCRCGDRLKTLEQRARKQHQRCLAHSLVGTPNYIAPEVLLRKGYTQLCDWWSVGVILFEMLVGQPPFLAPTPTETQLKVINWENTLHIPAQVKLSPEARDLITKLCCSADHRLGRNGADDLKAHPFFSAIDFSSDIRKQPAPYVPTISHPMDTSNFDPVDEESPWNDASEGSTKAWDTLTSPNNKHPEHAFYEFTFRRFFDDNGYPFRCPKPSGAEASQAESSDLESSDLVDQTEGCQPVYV
In short: as §1

WEE1 = WEE1 (Homo sapiens, UniProt P30291); settings: WEE1, 1 μM; read-out: % control
In short: as §1

ERN1 = ERN1 (Homo sapiens, UniProt O75460); settings: ERN1, 1 μM; read-out: % control
In short: as §2

Chain of WEE1 (P30291 whole entry): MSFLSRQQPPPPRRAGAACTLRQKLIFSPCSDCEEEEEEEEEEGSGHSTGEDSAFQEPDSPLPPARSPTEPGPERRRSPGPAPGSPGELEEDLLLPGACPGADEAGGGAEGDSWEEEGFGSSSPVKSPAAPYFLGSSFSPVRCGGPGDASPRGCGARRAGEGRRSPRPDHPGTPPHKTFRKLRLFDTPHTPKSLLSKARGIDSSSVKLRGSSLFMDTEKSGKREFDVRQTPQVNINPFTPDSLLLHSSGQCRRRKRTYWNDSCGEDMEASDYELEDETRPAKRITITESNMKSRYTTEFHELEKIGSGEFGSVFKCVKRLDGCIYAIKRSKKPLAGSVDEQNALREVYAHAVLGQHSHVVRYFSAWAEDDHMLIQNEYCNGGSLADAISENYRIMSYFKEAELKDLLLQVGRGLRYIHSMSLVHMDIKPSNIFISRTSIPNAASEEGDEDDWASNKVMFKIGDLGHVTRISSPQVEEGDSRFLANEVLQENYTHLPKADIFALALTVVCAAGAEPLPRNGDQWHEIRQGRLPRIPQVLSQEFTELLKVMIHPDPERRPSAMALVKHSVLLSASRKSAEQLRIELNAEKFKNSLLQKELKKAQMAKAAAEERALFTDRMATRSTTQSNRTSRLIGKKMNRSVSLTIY
T1 sequence (P51451 whole entry): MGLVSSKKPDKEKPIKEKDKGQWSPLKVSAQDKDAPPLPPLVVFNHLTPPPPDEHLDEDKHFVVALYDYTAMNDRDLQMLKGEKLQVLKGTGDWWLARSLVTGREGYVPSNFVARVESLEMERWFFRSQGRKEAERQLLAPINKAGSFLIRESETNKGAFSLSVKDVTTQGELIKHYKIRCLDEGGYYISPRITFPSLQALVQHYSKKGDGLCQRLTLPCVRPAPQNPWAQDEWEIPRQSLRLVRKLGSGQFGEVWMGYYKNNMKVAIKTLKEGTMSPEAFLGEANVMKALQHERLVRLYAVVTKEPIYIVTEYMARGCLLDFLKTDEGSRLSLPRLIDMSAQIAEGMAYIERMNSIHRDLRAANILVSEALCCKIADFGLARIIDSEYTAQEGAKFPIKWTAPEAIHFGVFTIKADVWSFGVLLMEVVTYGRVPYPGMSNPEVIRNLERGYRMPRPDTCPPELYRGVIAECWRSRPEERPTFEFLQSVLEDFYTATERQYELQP
Chain of ROCK1 (Q13464 whole entry): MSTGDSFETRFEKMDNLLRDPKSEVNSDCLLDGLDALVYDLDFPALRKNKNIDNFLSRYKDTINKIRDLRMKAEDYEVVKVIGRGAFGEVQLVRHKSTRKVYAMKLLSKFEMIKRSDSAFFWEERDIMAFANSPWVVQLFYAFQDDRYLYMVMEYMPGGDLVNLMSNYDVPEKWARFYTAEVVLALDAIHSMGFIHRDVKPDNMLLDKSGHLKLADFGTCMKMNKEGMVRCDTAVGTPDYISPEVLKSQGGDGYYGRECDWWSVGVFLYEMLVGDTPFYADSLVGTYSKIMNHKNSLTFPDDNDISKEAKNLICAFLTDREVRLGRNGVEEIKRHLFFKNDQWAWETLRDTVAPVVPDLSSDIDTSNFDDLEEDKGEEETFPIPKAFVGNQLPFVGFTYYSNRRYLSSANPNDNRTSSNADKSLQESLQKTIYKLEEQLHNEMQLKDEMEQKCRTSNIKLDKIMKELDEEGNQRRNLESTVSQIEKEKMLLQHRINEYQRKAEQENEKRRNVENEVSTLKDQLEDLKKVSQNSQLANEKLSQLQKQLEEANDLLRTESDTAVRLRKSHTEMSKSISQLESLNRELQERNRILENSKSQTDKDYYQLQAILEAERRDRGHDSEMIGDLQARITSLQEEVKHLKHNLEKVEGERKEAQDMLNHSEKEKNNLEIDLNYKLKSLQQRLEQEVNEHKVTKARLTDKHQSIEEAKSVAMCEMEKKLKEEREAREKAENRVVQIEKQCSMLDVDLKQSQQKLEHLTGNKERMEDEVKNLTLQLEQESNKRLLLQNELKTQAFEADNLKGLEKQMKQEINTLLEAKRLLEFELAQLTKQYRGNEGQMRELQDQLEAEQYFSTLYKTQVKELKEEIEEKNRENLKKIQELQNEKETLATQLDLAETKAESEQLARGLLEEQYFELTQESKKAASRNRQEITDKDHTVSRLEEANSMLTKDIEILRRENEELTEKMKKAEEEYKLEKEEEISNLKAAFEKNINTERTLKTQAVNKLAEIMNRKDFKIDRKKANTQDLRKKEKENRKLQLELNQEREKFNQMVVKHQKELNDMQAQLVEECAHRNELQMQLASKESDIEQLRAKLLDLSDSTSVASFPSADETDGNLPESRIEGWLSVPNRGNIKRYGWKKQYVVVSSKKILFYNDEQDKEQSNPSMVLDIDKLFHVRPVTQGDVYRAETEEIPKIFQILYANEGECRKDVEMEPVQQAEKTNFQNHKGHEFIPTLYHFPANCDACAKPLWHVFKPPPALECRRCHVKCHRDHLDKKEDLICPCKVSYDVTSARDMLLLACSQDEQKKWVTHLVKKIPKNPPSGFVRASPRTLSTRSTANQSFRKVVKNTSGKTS
Chain of PLK2 (Q9NYY3 whole entry): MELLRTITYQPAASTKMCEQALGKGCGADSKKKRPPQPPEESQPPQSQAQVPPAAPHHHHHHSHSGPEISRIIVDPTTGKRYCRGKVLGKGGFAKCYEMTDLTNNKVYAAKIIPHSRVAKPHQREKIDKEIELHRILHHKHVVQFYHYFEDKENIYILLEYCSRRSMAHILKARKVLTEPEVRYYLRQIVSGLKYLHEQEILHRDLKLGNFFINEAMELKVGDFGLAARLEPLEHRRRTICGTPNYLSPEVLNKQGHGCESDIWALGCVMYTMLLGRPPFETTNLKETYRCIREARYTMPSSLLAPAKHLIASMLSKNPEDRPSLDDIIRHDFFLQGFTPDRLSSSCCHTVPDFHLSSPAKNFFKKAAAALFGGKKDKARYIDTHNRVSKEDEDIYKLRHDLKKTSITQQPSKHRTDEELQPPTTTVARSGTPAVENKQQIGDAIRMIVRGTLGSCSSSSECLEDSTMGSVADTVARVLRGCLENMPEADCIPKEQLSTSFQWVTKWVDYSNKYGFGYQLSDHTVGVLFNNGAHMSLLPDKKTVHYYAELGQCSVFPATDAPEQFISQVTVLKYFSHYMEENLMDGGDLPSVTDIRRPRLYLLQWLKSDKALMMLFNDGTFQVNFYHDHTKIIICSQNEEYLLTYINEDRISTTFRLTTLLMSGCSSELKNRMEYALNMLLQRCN
T3 sequence (P27037 20-513): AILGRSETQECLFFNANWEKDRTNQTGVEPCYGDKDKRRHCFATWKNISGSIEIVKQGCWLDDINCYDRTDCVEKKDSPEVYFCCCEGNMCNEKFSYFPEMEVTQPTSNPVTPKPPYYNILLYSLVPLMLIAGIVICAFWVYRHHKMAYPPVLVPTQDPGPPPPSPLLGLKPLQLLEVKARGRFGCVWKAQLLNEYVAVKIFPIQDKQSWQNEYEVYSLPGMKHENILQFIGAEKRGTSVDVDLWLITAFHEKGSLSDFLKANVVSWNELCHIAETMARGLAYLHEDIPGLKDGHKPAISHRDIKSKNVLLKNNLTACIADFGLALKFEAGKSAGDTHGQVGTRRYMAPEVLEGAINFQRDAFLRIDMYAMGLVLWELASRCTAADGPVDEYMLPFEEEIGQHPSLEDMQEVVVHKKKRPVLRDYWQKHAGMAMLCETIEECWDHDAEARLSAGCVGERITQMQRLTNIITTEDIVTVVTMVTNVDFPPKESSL
T4 sequence (Q8TDR2 whole entry): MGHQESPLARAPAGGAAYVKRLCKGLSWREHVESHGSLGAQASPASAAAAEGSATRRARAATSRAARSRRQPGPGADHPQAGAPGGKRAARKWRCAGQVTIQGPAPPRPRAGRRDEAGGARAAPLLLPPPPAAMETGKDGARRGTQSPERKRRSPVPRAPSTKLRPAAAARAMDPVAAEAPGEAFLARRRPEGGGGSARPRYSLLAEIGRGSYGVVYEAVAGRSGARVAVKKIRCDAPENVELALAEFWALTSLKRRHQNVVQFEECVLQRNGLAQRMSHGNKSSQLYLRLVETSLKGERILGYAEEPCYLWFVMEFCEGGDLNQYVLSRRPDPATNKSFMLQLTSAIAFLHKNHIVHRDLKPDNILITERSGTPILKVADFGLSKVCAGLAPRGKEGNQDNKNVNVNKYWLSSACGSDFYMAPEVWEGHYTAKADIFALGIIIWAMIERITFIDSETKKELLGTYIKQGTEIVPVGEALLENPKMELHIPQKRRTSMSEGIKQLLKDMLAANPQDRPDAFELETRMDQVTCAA

Structure (SMILES) | remaining binding at 1 µM (ROCK1) [%] | remaining binding at 1 µM (BLK) [%] | remaining binding at 1 µM (PLK2) [%] | remaining binding at 1 µM (SGK) [%] | remaining binding at 1 µM (ACVR2A) [%] | remaining binding at 1 µM (STK35) [%] | remaining binding at 1 µM (PDPK1) [%] | remaining binding at 1 µM (LATS2) [%] | remaining binding at 1 µM (WEE1) [%] | remaining binding at 1 µM (ERN1) [%]
CNc1c(-c2cnn([C@H]3CCN(C(C)=O)C[C@@H]3F)c2)cnc2[nH]cc(Cl)c12 [Compound 77, 1-((3S,4S)-4-(4-(3-chloro-4-(methylamino)-1H-pyrrolo[2,3-b]pyridin-5-yl)-1H-pyrazol-1-yl)-3-fluoropiperidin-1-yl)ethan-1-one] | 20 | 100 | 85 | 17 | 99 | 63 | 94 | 86 | 97 | 56
CNc1c(-c2ccc(C(=O)N3CCC(N4CCOCC4)CC3)cc2)cnc2[nH]cc(Cl)c12 [Compound 96, (4-(3-chloro-4-(methylamino)-1H-pyrrolo[2,3-b]pyridin-5-yl)phenyl)(4-morpholinopiperidin-1-yl)methanone] | 4.7 | 100 | 100 | 7.3 | 97 | 50 | 68 | 78 | 88 | 73
O=C(c1ccc(-c2cnc3[nH]cc(Cl)c3c2NC2CCCC2)cc1)N1CCC(N2CCOCC2)CC1 [Compound 101, (4-(3-chloro-4-(cyclopentylamino)-1H-pyrrolo[2,3-b]pyridin-5-yl)phenyl)(4-morpholinopiperidin-1-yl)methanone] | 63 | 100 | 100 | 86 | 95 | 99 | 94 | 82 | 100 | 86
